Test results from patent US5681961A, “Arylsulphonamides, pharmaceutical compositions containing these compounds and processes for preparing them” (Dr. Karl Thomae GmbH, priority 1989, dated 1997).
“And” between values parts separate entries of the source, which are not always exact repeats. Equal entries are not always repeated.

Experiments:
thromboxane = target: T1, thromboxane (Homo sapiens, UniProt P21731); assay: Thromboxane-antagonistic activity: displacement of 3H-labelled ligand on washed human platelets; format: binding; conditions: displacement of 3H-ligand, human platelet suspension, 60 min ambient temperature
T1 construct: endogenous in cells; host or cells: washed human platelets (platelet-rich plasma passed through Sepharose 2B)
T1 sequence (P21731 1-343): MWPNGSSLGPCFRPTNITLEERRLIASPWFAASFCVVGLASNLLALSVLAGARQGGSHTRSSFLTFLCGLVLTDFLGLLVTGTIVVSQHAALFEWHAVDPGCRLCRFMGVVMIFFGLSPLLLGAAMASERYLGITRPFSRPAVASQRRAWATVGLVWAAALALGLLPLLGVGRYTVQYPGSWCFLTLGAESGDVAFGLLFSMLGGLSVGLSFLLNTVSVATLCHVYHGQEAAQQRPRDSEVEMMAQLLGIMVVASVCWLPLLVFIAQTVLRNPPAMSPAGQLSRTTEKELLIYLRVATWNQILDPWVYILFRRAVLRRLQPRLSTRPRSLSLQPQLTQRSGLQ
Procedure: Venous human blood is anti-coagulated with 13 mM Na3 citrate and centrifuged for 10 minutes at 170×g. The supernatant platelet-rich plasma is passed through a Sepharose 2B column in order to remove the plasma proteins. Aliquots of the platelet suspension obtained are incubated with the test substance, the ligand (^3 H-labelled) and a marker ([…]) for 60 minutes at ambient temperature and then centrifuged for 20 seconds at 10,000×g. The supernatant is removed and the pellet is dissolved in NaOH. The ^3 H activity in the supernatant corresponds to the free ligand, ^14 C gives the concentration of the marker. ^3 H in the pellet corresponds to the bound ligand whilst ^14 C is used to correct for the ligand in the extracellular space. After the process has been repeated, the displacement curve is determined from the binding values for different concentrations of the test substance and the IC50 is determined.

[1] = tested on: collagen-induced thrombocyte aggregation in platelet-rich plasma; assay: Antithrombotic activity: collagen-induced thrombocyte aggregation (Born and Cross); format: cell-based, human (healthy volunteers); conditions: Homo sapiens, 10 min, 10 min incubation at 37° C.
Procedure: The thrombocyte aggregation is measured using the Born and Cross method (J. Physiol. 170: 397 (1964)) in platelet-rich plasma taken from healthy volunteers. To inhibit coagulation the blood is mixed with 3.14% sodium citrate in a ratio by volume of 1:10.
The pattern of the decrease in optical density of the platelet suspension is photometrically measured and recorded after the addition of aggregation-triggering substance. The rate of aggregation is concluded from the angle of inclination of the density curve. The point on the curve where there is maximum light transmittance is used to calculate the optical density.
The amount of collagen used is as small as possible but sufficient to produce an irreversible reaction curve. Standard commercial collagen produced by Hormonchemie of Munich is used. Before the addition of the collagen the plasma is incubated for 10 minutes with the substance at 37° C.
From the measurements obtained an EC50 is determined graphically, indicating a 50% change in the optical density in terms of the inhibition of aggregation.

thromboxane synthetase = target: T2, thromboxane synthetase (Homo sapiens, UniProt P24557); assay: Inhibitory effect on thromboxane synthetase (TXB2 formation from arachidonic acid in human platelets); format: biochemical; conditions: inhibition of TXB2 formation, human platelet suspension, 14C-arachidonic acid
T2 construct: endogenous in cells; host or cells: washed human platelets (platelet-rich plasma passed through Sepharose 2B)
T2 sequence (P24557 1-533): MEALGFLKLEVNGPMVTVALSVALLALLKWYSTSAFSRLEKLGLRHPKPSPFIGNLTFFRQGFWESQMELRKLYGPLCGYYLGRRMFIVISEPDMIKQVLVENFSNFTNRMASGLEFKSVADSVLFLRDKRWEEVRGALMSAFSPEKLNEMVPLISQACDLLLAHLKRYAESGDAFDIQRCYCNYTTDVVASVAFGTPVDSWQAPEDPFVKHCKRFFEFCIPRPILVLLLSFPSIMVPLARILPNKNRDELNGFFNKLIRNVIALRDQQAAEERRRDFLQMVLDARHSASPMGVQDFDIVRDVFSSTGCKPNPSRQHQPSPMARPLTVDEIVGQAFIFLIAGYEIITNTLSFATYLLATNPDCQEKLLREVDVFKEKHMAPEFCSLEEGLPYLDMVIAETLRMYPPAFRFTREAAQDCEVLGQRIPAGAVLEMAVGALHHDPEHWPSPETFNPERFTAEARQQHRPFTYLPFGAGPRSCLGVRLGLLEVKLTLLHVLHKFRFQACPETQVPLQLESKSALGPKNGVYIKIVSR
Procedure: Venous human blood is anti-coagulated with 13 mM Na3 citrate and centrifuged for 10 minutes at 170×g. The supernatant platelet-rich plasma is passed through a Sepharose 2B column in order to remove the plasma proteins. Aliquots of the platelet suspension obtained are incubated with the test substance or with a solvent as control for 10 minutes at ambient temperature and after the addition of ^14 C-labelled arachidonic acid incubation is continued for a further 10 minutes. After this has been stopped with 50 μl of citric acid, extraction is carried out 3× with 500 μl of ethyl acetate and the combined extracts are distilled off with nitrogen. The residue is taken up in ethyl acetate, placed on TLC film and separated with chloroform:methanol:glacial acetic acid:water (90:8:1:0.8, v/v/v/v). The dried TLC films are placed on X-ray film for 3 days, the autoradiograms were developed and the active zones were marked on the film using the autoradiograms. After cutting out, the activity is measured in a scintillation counter and the inhibition of the formation of TXB2 is calculated. The IC50 is determined by linear interpolation.

mice = assay: Acute toxicity, oral, mice; format: in vivo, mouse; conditions: observation period 14 days; for animals died: 250 mg/kg single oral dose; for Approximate acute toxicity: single oral dose
Procedure: The acute toxicity of the test substances was determined as a guide on groups of 10 mice after oral administration of a single dose (observation period: 14 days): […]

[2] = tested on: lethal effects of endotoxin (E. coli 0111:B4 lipopolysaccharide); assay: Inhibition of the lethal effects of endotoxin; format: in vivo, rat (male Sprague-Dawley)
Procedure: Male Sprague-Dawley rate are primed by intravenous injection with 0.1 mg/kg of endotoxin (a lipopolysaccharide from E. coli 0111:B4) one week before the main study. In the main study, a potentially lethal dose of E. coli (40 mg/kg) is injected intravenously and the subsequent mortality recorded over an observation period of seven days.
The test animals are given test substance B as a suspension in 0.5% tylose by oral route one hour before and 4, 8, 24 and 48 hours after the second injection of endotoxin.

[3] = tested on: production of thromboxane and PGE2 in an isolated lung; assay: Effect on production of thromboxane and PGE2 in an isolated lung; set-up: species or system guinea-pig
Procedure: Guinea-pigs are killed by a blow to the neck, the lungs are rapidly removed and washed with a tyrode solution through the pulmonary artery. The lung is perfused with the same solution (0.5 ml/min.) and ventilated under negative pressure (frequency: 52 breaths per minute, maximum pressure -20 cm H2 O). A 0.1 ml bolus of bradykinin (0.2 μM) is injected via the pulmonary arteria on two occasions, with approximately 60 minutes between boli. From 30 minutes before the second bradykinin injection 1 μM of substance B is continually added to the lung perfusate. The control lungs are perfused without the added substance. The perfusate is collected for 2 minutes be administration of bradykinin and 10 minutes thereafter. The samples are left to stand for 20 minutes at ambient temperature (conversion of thromboxane A2 into B2) and are then frozen at -20° C.
The concentrations of thromboxane B2 and PGE2 are determined by radioimmunoassay.

[4] = tested on: bronchospasm induced by arachidonic acid; assay: Inhibition of bronchospasm induced by arachidonic acid; format: in vivo, guinea-pig; conditions: Cavia porcellus, iv; guinea-pigs, injected 10 min before arachidonic acid (0.5-2.0 mg/kg i.v.); graphical extrapolation
Procedure: Guinea-pigs anaesthetised with ethyl urethane and ventilated artificially under pressure limitation are intravenously injected with arachidonic acid (a thromboxane precursor) and the consequent bronchospasms are recorded using a modified form of the method of Konzett and Rossler. The doses of arachidonic acid (0.5-2.0 mg/kg) are selected so as to give a 60% reduction in tidal volume. Increasing doses of test substance B are injected 10 minutes before the arachidonic acid. The percentage inhibition of reduction in tidal volume is determined by comparison of the maximum reduction after the administration of arachidonic acid and the corresponding value after pretreatment with the test substance.

[5] = 1 mg/kg oral at each dosage time point (1 h before, 4, 8, 24, 48 h after endotoxin)
[6] = 10 mg/kg oral at each dosage time point (1 h before, 4, 8, 24, 48 h after endotoxin)

Structure (SMILES)	IC50 (thromboxane) [nM]	EC50 [1] [nM]	IC50 (thromboxane synthetase) [nM]	animals died (mice)	Approximate acute toxicity (mice) [mg/kg]	Rats alive/total after 2 days [2, 5]	Rats alive/total after 7 days [2, 5]	Rats alive/total after 2 days [2, 6]	Rats alive/total after 7 days [2, 6]	effect on formation of PGE2 (in words) ([3]; 1 μM in lung perfusate)	effect on thromboxane production (in words) ([3]; 1 μM in lung perfusate)	Ratio of mediator release after 2nd / after 1st administration of bradykinin: Thromboxane B2 ([3]; 1 μM in perfusate at time of 2nd bradykinin, individual values, control 1.18, 0.50, 0.84)	Ratio of mediator release after 2nd / after 1st administration of bradykinin: PGE2 ([3]; 1 μM in perfusate at time of 2nd bradykinin, individual values, control 1.28, 1.12, 1.09)	ED50 [4] [µg/kg]
Cc1ccc(S(=O)(=O)NC2Cc3ccc(C(=CCCCC(=O)O)c4cccnc4)cc3C2)cc1 (stereo not shown) [A]	23	300	3	0 out of 10	250									
O=C(O)CCCC=C(c1ccc(CCNS(=O)(=O)c2ccc(Cl)cc2)cc1)c1cccnc1 [B]	20	150	0.8	0 out of 10	250	7/10	6/10	8/10	5/10	promoting the formation of PGE2	hinders thromboxane production	0.0	5.08 and 2.23	8.1
O=C(O)CCCCC(c1cccnc1)c1ccc2c(c1)CC(NS(=O)(=O)c1ccc(Cl)cc1)C2 (stereo not shown) [C]	80	300	3	0 out of 10	250									
O=C(O)CCCCC(c1ccc(CCNS(=O)(=O)c2ccc(Cl)cc2)cc1)c1cccnc1 (stereo not shown) [D]	80	1200	1	0 out of 10	250									
O=C(O)CCCC=C(c1ccc(CCNS(=O)(=O)c2ccc(C(F)(F)F)cc2)cc1)c1cccnc1 [E]	28	100	6	0 out of 10	250									
